For data set [1] the following is noted: cc_pd bond, 12-membered ring, Pd(OAc)2/cataCXium A/KOAc, 120.0 °C.
The conditions of data set [2]: cc_pd bond, tert-amyl alcohol, 120.0 °C.
Data set [3] concerns the target T1, human recombinant wild-type ALK kinase domain (amino acids 1093-1411) (Homo sapiens, UniProt Q9UM73).
T1 construct: ALK kinase domain (amino acids 1093-1411); made in house
The data set can be described thus: Wild-type ALK enzyme assay (microfluidic mobility shift). The data set is classed as biochemical. To be noted: ATP 60 μM, competitive inhibition fit, read-out: WT ALK enzyme assay (Ki).
Description: The reactions were incubated for 1 h at room temperature, stopped by the addition of 0.1 M EDTA, pH 8, and the extent of reactions (˜15-20% conversion with no inhibitor) was determined after electrophoretic separation of the fluorescently labeled peptide substrate and phosphorylated product on an LabChip EZ Reader II (Caliper Life Sciences, Hopkinton, Mass.).

For data set [4], the target named is T2, human recombinant L1196M ALK kinase domain (amino acids 1093-1411) (Homo sapiens, UniProt Q9UM73, L1196M).
T2 construct: ALK kinase domain (amino acids 1093-1411); made in house
The data set can be described thus: L1196M mutant ALK enzyme assay (microfluidic mobility shift). In kind it is biochemical. The conditions noted are these: ATP 60 μM, 0.5 nM enzyme, competitive inhibition fit; read-out: L1196M ALK enzyme assay (Ki).

The target in data set [5] is T3, WT EML4-ALK (NIH-3T3 EML4-ALK wt v1 cells) (Homo sapiens, UniProt Q9UM73).
T3 construct: expressed in transfected cells; the other entry of the earlier key: EML4 (Q9HC35, Echinoderm microtubule-associated protein-like 4)
The data set can be described thus: Cellular phospho-ALK (Tyr1604) ELISA assay for WT EML4-ALK. In kind it is cell-based. To be noted: 1 hour, read-out: ELISA assay for WT EML4-ALK (IC50). In general terms: ELISA stands for enzyme-linked immunosorbent assay.

In data set [6] the target is T4, L1196M EML4-ALK (NIH-3T3 EML4-ALK v1 L1196M cells) (Homo sapiens, UniProt Q9UM73, L1196M).
T4 construct: expressed in transfected cells; the other entry of the earlier key: EML4 (Q9HC35, Echinoderm microtubule-associated protein-like 4)
The data set can be described thus: Cellular phospho-ALK (Tyr1604) ELISA assay for L1196M EML4-ALK. The data set is classed as cell-based. The conditions noted are these: NIH-3T3 EML4-ALK v1 L1196M cells, 1 hour, phospho-ALK (Tyr1604); read-out: ELISA assay for L1196M EML4-ALK (IC50).
Description: Cellular Phospho-ALK (Tyr1604) ELISA Assay for EML4-ALK:
The cells were maintained at 37° C. in a 5% CO2 incubator in DMEM (Invitrogen, Carlsbad, Calif.) medium supplemented with 1% L-glutamine, 1% penicillin and streptomycin, 1 ug/ml puromycin and 10% new born calf serum (NCS) in T-75 flasks.
Cells were washed with PBS and re-suspended in DMEM medium supplemented with 0.5% NCS and 1% pen/strep and seeded into 96-well plates at density of 20,000 cells/well/100 μl and incubated in the incubator at 37° C. and 5% CO2. After 20 hours of incubation, 100 μl of assay media (DMEM) in presence of designated PF-compounds concentrations or controls (DMSO) were added into plates and incubated for 1 hour in the incubator. Media was then removed and lysis buffer, containing phosphatase inhibitors and phenylmethanesulfonyl fluoride (PMSF), was added to wells and shaken at 4° C. for 30 minutes to generate protein lysates.
A phospho-ALK (Tyr1604) rabbit antibody was coated onto the 96-well microplates. 50 μl of cell lysates were added to the antibody coated plate and incubated at room temperature for 2 hours. Following extensive washing with 0.1% Tween 20 in PBS to remove unbound materials, ALK mouse mAb was added to detect captured phospho-ALK (Tyr1604) and phospho-ALK fusion proteins. Anti-mouse IgG, HRP-linked antibody was then used to recognize the bound detection antibody. Finally, the chemiluminescent reagent was added and incubated for 10 minutes for signal development. The assay plates were read in the Envision plate reader in the luminescent mode. IC50 values were calculated by a concentration-response curve fitting using a four-parameter analytic method.

The conditions of data set [7]: cc_pd bond, 12-membered ring, Pd(OAc)2/cataCXium A/KOAc, 120.0 °C. This is another data set of the same source.
For data set [8] the following is noted: cc_pd bond, 12-membered ring, Pd(OAc)2/cataCXium A/KOAc, t-AmOH, 120.0 °C.

From patent US8680111B2 (Pfizer Inc., priority 2012, dated 2014) come the findings set out here.

The term Ki denotes a dissociation constant, usually derived from enzyme kinetics or from competition with a known ligand. As a reminder, the IC50 is the midpoint of a concentration-inhibition curve.

Where two headings read alike, the source gives them in different places.

Compound `C[C@H]1Oc2nc(cnc2N)-c2c(nn(C)c2C#N)CN(C)C(=O)c2ccccc21` [Example 70, (10R)-7-amino-2,10,16-trimethyl-15-oxo-10,15,16,17-tetrahydro-2H-8,4-(azeno)pyrazolo[4,3-h][2,5,11]benzoxadiazacyclotetradecine-3-carbonitrile] came in with a ring closure, yield after HPLC in data set [1] (from C[C@@H](Oc1nc(Br)cnc1N)c1ccccc1C(=O)N(C)Cc1cc(C#N)n(C)n1, t-amyl alcohol, 48.7 mM) of 32%. For the same compound, the ring closure, yield of all isomers in data set [2] (from C[C@@H](Oc1nc(Br)cnc1N)c1ccccc1C(=O)N(C)Cc1cc(C#N)n(C)n1, Pd(OAc)2/cataCXium A, KOAc, 48.7 mM, 3.0 h) amounted to 32%. The values for the Ki in data set [3] and in data set [4] were under 0.16 nM and 0.96 nM, respectively. The concentration for half-maximal inhibition (IC50) in data set [5] came out at 6.52 nM; in data set [6] it was 78.5 nM.

The compound `C[C@H]1Oc2cc(cnc2N)-c2c(noc2C#N)CN(C)C(=O)c2ccc(F)cc21` [Example 100, (10R)-7-amino-12-fluoro-10,16-dimethyl-15-oxo-10,15,16,17-tetrahydro-8,4-(metheno)[1,2]oxazolo[4,3-h][2,5,11]benzoxadiazacyclotetradecine-3-carbonitrile] had a ring closure, isolated yield in data set [7] (t-AmOH, 17.9 mM) of 15%. In data set [8] (17.9 mM), the ring closure, conversion was 30%. For the same compound, the Ki is 3.1 nM in data set [3] and 24.2 nM in data set [4]. The IC50 amounted to 146 nM in data set [5] and 1480 nM in data set [6].

The compound `C[C@H]1Oc2nc(cnc2N)-c2c(noc2C#N)CN(C)C(=O)c2ccc(F)cc21` [Example 99, (10R)-7-amino-12-fluoro-10,16-dimethyl-15-oxo-10,15,16,17-tetrahydro-8,4-(azeno)[1,2]oxazolo[4,3-h][2,5,11]benzoxadiazacyclotetradecine-3-carbonitrile] had a ring closure, conversion in data set [8] (21.0 mM) of 30%. Moreover, the ring closure, yield after HPLC in data set [1] (t-AmOH, 21.0 mM) came to 9%. Besides, the Ki in data set [3] was 3.2 nM; in data set [4], 11.7 nM. Besides, the IC50 in data set [5] amounted to 52.4 nM; in data set [6], 531 nM.

On to `C[C@H]1Oc2nc(cnc2N)-c2c(nn(C)c2C#N)CN(C)C(=O)c2c(F)cc(F)cc21` [Example 101, (10R)-7-amino-12,14-difluoro-2,10,16-trimethyl-15-oxo-10,15,16,17-tetrahydro-2H-8,4-(azeno)pyrazolo[4,3-h][2,5,11]benzoxadiazacyclotetradecine-3-carbonitrile], for which the ring closure, isolated yield in data set [7] (t-amyl alcohol, 50.0 mM) stood at 53%. For the same compound, the ring closure, yield of all isomers in data set [2] (from C[C@@H](Oc1nc(Br)cnc1N)c1cc(F)cc(F)c1C(=O)N(C)Cc1cc(C#N)n(C)n1, Pd(OAc)2/cataCXium A/KOAc, 50.0 mM, 2.0 h) is 53%. Further, the inhibition constant (Ki) in data set [3] amounted to 0.12 nM; in data set [4], 0.41 nM. Moreover, the IC50 in data set [5] amounted to 0.92 nM; in data set [6], 8.77 nM.
